Measured values taken from patent publication US20070060651A1, “Compositions and methods for improving functional vascular cellular survival integrity and reducing apoptosis in ischemia” (NESTEC S.A., priority 2005, published 2007).

Experiments:
[1] = tested on: transient cerebral ischemia in an ovariectomized rat model; test: Cerebral ischemia-induced apoptosis by TUNEL staining after tMCA occlusion; format: in vivo; details: average of three brain regions, normalized to DAPI total cells; vs control; FIG. 3
[2] = tested on: transient cerebral ischemia in an ovariectomized rat model; test: Ischemic lesion (infarct) volume by TTC staining after transient middle cerebral artery (tMCA) occlusion; format: in vivo; details: all rats; vs control diet; 60 min tMCA occlusion, 24 hours reperfusion; FIG. 1
Method: Animals. Female Charles Rivers Sprague-Dawley rats (250 g, Wilmington, Mass.) were acclimatized to animal facilities three days prior to surgery with a 12 hour light-dark cycle. Bilateral ovariectomy was performed 2 weeks before diet feeding began. Four weeks after the start of diet feeding, transient middle cerebral artery (tMCA) occlusion under anesthesia was performed following intraperitoneal (i.p.) injection of ketamine (60 mg/kg) and xylazine (10 mg/kg).
Diet and Hormone Administration. Fourteen to 15 rats per group were randomly assigned to one of five treatment groups. These groups were as follows: […]
All diets were fed ad libitum to the rats for four weeks. […] Also once per week, body weights and food intake were determined. […]
Middle cerebral artery occlusion and samples preparation. […] Rectal temperature was monitored and maintained between 36.5 and 37° C. with a heating pad throughout the procedure. […]
Some animals were eliminated from the study during the protocol. The number of animals quantified for lesion volume ranged from 12 to 15 per group.
Statistical methods. Results were analyzed with one-way analysis of variance (ANOVA) using Prism software(Graphpad Inc; San Diego, Calif.). The significance of differences among groups was determined by one-way ANOVA followed by Tukey's multiple comparison tests. All values were expressed as mean +/−SEM.

[3] = tested on: growth factors and anti-inflammatory proteins; test: Expression of growth factors and anti-inflammatory proteins in dogs on supplemental arginine; format: in vivo, dog; details: dietary supplementation

Row | Compound | TUNEL staining / TUNEL-positive cell counts (apoptosis), in words [1] | effect on infarct size / mean infarct volume (in words) [2] | expression of multiple growth factors and anti-inflammatory proteins [3]
1 | C[C@]12CC[C@@H]3c4ccc(O)cc4CC[C@H]3[C@@H]1CC[C@@H]2O [estradiol, 17 β-estradiol] | substantial reduction in TUNEL staining | reduced infarct size | –
2 | N=C(N)NCCC[C@H](N)C(=O)O [arginine, L-arginine] | – | – | increased expression of multiple growth factors and anti-inflammatory proteins in a dose-dependent manner
